One compound from publication PMC10517971, “An inverse agonist of orphan receptor GPR61 acts by a G protein-competitive allosteric mechanism” (Nature Communications, 2023) can be followed below.

pIC50: −log10 of the molar value. Values joined by “and” are separate entries in the source; they are usually repeats but may differ in a detail not shown here. Equal values may be shown once. Read-outs that look alike come from different tables or passages of the source. Bounds are passed on as bounds.

One experiment addresses Human PDE4D3 (Homo sapiens, UniProt Q08499). Put plainly: Phosphodiesterase Assay (SPA). The experiment is classed as biochemical. On the procedure:
(§1) 45 37 °C for 30 min (DAT) or 60 min (NET and SER T). The plate is transferred to the FLIPR Tetra®
(§2) 46 instrument and the fluorescence of each well was measured (Ex 470- 495 […]).
(§3) 47 The level of fluores cenc e measured dire ctly relates to the level of uptake of the dye labelled amine,
(§4) 48 with a reduction in levels being related to an inhibition of the respective transporter.
(§5) 49 Phosphodiesterase Assays
(§6) 50 The phosphodiesteras e (P DE) assays m easure the conversion of 3’, 5 ’ -[3H ] cAMP to 5’-[3H] AMP
(§7) 51 (for PDE 3A1 and 4D3) or 3’, 5’-[3H] cGMP to 5’-[3H] GMP (for 5A1) by the relevant PDE
(§8) 52 enzyme subtype. Yttrium silicate (YSi) scintillation proximity (SPA) beads bind selectively to 5’-
(§9) 53 [3H] AMP or 5’-[3H] GMP, with the magnitude of radioactive counts being directly related to
(§10) 54 PDE enzymatic activity. The ass ay was performed in white walled op aque b ottom 384-well plates.
(§11) 55 Test compound (1 µL) in dimethyl sulfoxide was added to each well. Enzyme solution was then
(§12) 56 added to each well in buffer (in mM: Trizma, 50 (pH7.5); MgCl2, 1.3 mM) containing Brij 35
(§13) 57 (0.01% (v/v)). Subsequently, 20 µL of 3’,5’-[3H] cGMP (125 nM) or 20 µL of 3’,5’-[3H] cAMP
(§14) 58 (50 nM) was added to each well to start the reaction and the plate was incubated for 30 min at
(§15) 59 25 °C. The reaction was terminated by the addition of 20 µL of PDE YSi SPA beads (Perkin Elmer,
(§16) 60 Waltham, MA). Followin g an additional 8 h incubation period the plates were read on a MicroBeta
(§17) 61 radioactive plat e counter (Perkin Elmer, Waltham, MA, USA) to determine radioactive counts per
(§18) 63 Bromodomain-Containing Protein 4 (BRD4) Binding Assay
(§19) 64 The BRD4 fluorescent polarization binding assay uses purified His-tagged BRD4 protein and its
(§20) 65 interaction with a Cy5 labelled small molecule probe that binds to the BRD4 site involved in the
(§21) 66 interaction with tetra-acetylated histone H4 peptide. In brief, the assay is performed in low volume

The target of the next experiment is Human PDE5A1 (Homo sapiens, UniProt O76074). Nature of the experiment: Phosphodiesterase Assay (SPA). The experiment is classed as biochemical. How it is done: as §1, §2, §3, §4, §5, §6, §7, §8, §9, §10, §11, §12, §13, §14, §15, §16, §17, §18, §19, §20, §21
For another experiment, the target named is Human PDE3A1 (Homo sapiens, UniProt Q14432). Put plainly: Phosphodiesterase Assay (SPA). The experiment is classed as biochemical. On the procedure:
as §1, §2, §3, §4, §5, §6, §7, §8, §9, §10, §11, §12, §13, §14, §15, §16, §17, §18, §19, §20, §21

For another experiment, the target named is Human PDE8B (Homo sapiens, UniProt O95263). Put plainly: Phosphodiesterase Assay (SPA). The experiment is classed as biochemical.
A further experiment concerns the target T1, human GPR61 (Homo sapiens, UniProt Q9BZJ8).
T1 construct: expressed in transfected cells; host or cells: CHO-K1, transient (Fugene6)
Nature of the experiment: Functional cAMP assay (HTRF), transiently transfected CHO-K1 cells, wild-type GPR61 (untagged and HiBit-tagged). The experiment is classed as cell-based. Details: key to cAMP response (Figure 3e source data): nM cAMP per well, from standard curve. The source says: The human GPR61 (reference sequence NM_031936.4) cDNA was synthesized and subcloned into pcDNA5/FRT/TO (Thermo Fisher, Pittsburgh, PA). The pcDNA5/FRT/TO/ human GPR61 plasmid was then transfected into the Flp-In™-CHO Cell Line (Thermo Fisher, Pittsburgh, PA) and a doxycycline-inducible clonal cell line was selected (CHO TREx hGPR61 WT). Sequences encoding untagged and HiBit/hemagglutinin (HA)-tagged versions of the wild-type human GPR61 were synthesized and cloned into pcDNA3.1. The HiBit ([…]) and HA ([…]) tags were sequentially included after the N-terminal initiator methionine. Four single amino acid substitutions (N137A, R140A, V288A, N345A) were then introduced in the untagged and tagged human GPR61 constructs using site-specific mutagenesis. The nucleotide sequences of all receptor constructs were confirmed by automated DNA sequencing.
Parental CHO-K1 cells were maintained at 37 °C in a humidified environment (5% CO2) and grown in Dulbecco’s Modified Eagle Medium (DMEM) F-12 media (Gibco, 11320033) supplemented with 10% FBS, 1% Glutamax (Gibco, 35050061) and 100units/ml penicillin and streptomycin (Gibco, 15140122. Cells were dissociated using a cell dissociation solution (Gibco, 13151-014), counted, and resuspended in complete culture media without antibiotics. Cells were then transiently transfected using Fugene6 (Promega) in a 384-well plate format (Corning, 3570). For each well, 7500 cells were transfected with 5 ng of receptor plasmid, 20 ng of carrier DNA (Promega, PAE4881) and 0.075 μl Fugene6 in a final volume of 25 μl. Fugene6 and DNA were separately diluted in Optimem media (Gibco, 31985070) (1.25 μl final volume each). Fugene6 and DNA solutions were then combined and incubated for 15 min at room temperature. The cell containing solution (22.5 μl) was then added and transfection reactions were mixed and transferred to the assay plate. Following 24 h incubation at 37 °C, wells were rinsed once and 25 μl of HiBit assay buffer (Phenol-red free DMEM F-12 media containing 2% FBS) was added per well. Surface and total receptor expression was measured separately by adding 25 μl per well of the extracellular (Promega, PRN2421) and lytic (Promega, PRN3040) assay solutions, respectively. Plates were incubated for 10 min at room temperature on a shaker and luciferase activity was measured using an EnVision plate reader (Perkin Elmer, Chicago, IL). Expression was normalized as percent of the wild-type receptor signal. Statistical comparisons of expression levels observed with WT versus GPR61 mutants were made by one-way analysis of variance with Dunnett’s post hoc test.
A homogeneous Time-Resolved Fluorescence (HTRF) assay (Perkin Elmer, Dynamic2 kit #) was used to assess receptor basal and inverse agonist activity at human GPR61, GPR62, and GPR101. For routine inverse agonist screening frozen CHO TREx human GPR61, GPR62 and GPR101 cells were used. Cells were thawed, resuspended in complete assay media (DMEM F-12, 10% HI FBS, 100 μg/mL Normocin, 700 μg/mL Hygromycin B and 15 μg/mL Blasticidin) containing 1ug/ml doxycycline, plated in white 384 well plates (Corning, 3570) at a density of 750 cells/well (25 μl/ well) and cultured at 37 °C in an incubator overnight. For studies assessing basal and inverse agonist activity at human GPR61 mutants, CHO-K1 cells were transiently transfected using Fugene6, plated in white 384 well plates (7500 cells/well) and grown overnight at 37 °C, as described for receptor expression studies. […]

The target of a further experiment is Human PDE11A4 (Homo sapiens, UniProt Q9HCR9). Nature of the experiment: Phosphodiesterase Assay (SPA). The experiment is classed as biochemical.

For orientation: pIC50 means the IC50 on a negative log10 scale, so that one unit is a factor of ten.

T1 sequence (Q9BZJ8 whole entry): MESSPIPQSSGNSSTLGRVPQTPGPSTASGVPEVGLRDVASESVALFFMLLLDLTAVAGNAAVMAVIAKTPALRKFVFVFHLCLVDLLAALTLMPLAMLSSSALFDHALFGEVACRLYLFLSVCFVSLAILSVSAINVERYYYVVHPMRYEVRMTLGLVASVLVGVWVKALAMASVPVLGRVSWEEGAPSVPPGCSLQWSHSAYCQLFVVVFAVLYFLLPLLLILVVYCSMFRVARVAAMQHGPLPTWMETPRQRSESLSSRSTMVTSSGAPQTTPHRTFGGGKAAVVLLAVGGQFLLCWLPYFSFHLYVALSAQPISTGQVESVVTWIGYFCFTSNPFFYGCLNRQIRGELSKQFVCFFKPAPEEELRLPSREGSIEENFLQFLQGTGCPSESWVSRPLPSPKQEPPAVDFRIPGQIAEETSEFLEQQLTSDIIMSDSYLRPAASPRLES
Human PDE3A1, sequence (Q14432 whole entry): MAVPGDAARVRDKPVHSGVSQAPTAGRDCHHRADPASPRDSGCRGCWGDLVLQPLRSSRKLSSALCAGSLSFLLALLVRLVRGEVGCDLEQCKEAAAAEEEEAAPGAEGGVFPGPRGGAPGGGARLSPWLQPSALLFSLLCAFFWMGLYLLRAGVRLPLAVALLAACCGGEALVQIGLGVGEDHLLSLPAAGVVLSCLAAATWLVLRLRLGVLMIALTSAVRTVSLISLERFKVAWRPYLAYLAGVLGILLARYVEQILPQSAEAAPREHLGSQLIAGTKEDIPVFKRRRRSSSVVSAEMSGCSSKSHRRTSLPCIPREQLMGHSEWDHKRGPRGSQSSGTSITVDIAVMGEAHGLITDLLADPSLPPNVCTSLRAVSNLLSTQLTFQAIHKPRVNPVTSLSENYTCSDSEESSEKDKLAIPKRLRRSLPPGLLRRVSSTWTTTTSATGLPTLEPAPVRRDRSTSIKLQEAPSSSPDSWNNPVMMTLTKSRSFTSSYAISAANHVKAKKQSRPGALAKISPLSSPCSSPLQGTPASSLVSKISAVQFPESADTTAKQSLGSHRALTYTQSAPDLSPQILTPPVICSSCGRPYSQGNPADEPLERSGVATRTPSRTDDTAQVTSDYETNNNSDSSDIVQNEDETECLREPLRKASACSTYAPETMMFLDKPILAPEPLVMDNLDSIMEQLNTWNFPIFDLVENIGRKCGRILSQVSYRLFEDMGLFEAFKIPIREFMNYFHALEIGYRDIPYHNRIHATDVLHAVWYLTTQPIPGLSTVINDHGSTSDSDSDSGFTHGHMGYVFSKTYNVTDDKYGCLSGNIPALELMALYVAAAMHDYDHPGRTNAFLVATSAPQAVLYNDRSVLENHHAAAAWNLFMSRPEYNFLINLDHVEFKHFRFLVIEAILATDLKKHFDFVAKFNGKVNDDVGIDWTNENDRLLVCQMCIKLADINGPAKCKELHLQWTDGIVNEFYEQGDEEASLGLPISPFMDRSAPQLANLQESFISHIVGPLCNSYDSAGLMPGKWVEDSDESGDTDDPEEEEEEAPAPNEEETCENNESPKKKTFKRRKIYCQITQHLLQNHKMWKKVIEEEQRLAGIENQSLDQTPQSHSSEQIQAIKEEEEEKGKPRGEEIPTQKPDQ
Human PDE8B, sequence (O95263 whole entry): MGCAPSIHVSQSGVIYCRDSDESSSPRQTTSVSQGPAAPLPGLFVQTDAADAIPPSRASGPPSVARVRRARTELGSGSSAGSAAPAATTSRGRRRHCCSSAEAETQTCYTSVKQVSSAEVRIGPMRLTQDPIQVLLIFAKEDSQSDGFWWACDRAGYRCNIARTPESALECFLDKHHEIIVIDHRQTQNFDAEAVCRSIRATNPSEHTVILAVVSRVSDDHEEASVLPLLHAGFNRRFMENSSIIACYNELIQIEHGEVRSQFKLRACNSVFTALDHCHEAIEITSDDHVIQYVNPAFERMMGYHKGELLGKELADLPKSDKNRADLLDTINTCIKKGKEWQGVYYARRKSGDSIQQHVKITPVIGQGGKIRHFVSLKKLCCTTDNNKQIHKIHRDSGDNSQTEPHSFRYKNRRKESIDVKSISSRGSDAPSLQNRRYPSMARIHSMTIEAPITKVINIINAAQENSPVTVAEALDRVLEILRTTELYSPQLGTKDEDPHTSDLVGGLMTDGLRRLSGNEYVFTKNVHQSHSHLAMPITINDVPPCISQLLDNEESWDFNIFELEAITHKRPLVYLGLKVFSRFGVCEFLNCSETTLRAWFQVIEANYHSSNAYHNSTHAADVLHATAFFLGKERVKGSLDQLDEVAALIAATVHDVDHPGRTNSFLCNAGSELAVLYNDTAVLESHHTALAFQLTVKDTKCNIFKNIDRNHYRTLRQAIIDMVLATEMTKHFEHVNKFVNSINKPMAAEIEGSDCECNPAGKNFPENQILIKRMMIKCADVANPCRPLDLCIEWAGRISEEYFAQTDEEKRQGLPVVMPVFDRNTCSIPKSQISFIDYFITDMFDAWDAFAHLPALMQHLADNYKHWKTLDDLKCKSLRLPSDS
Human PDE4D3, sequence (Q08499 1-673 isoform Q08499-2): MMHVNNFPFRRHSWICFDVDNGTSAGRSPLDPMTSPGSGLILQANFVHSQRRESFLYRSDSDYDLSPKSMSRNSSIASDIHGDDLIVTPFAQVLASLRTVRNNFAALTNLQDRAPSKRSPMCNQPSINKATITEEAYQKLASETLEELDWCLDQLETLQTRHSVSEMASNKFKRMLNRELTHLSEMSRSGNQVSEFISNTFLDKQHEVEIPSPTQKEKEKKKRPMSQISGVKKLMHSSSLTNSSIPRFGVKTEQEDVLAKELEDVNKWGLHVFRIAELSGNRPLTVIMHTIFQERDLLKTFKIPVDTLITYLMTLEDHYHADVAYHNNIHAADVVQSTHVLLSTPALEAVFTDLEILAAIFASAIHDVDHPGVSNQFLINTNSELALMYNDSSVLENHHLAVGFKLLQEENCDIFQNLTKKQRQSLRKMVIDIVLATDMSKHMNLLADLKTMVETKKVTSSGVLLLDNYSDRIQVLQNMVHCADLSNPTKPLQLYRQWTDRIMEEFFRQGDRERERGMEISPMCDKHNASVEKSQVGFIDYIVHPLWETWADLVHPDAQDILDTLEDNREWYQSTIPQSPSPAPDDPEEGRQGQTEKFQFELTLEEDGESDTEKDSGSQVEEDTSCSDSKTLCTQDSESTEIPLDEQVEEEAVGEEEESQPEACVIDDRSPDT
Human PDE11A4, sequence (Q9HCR9 whole entry): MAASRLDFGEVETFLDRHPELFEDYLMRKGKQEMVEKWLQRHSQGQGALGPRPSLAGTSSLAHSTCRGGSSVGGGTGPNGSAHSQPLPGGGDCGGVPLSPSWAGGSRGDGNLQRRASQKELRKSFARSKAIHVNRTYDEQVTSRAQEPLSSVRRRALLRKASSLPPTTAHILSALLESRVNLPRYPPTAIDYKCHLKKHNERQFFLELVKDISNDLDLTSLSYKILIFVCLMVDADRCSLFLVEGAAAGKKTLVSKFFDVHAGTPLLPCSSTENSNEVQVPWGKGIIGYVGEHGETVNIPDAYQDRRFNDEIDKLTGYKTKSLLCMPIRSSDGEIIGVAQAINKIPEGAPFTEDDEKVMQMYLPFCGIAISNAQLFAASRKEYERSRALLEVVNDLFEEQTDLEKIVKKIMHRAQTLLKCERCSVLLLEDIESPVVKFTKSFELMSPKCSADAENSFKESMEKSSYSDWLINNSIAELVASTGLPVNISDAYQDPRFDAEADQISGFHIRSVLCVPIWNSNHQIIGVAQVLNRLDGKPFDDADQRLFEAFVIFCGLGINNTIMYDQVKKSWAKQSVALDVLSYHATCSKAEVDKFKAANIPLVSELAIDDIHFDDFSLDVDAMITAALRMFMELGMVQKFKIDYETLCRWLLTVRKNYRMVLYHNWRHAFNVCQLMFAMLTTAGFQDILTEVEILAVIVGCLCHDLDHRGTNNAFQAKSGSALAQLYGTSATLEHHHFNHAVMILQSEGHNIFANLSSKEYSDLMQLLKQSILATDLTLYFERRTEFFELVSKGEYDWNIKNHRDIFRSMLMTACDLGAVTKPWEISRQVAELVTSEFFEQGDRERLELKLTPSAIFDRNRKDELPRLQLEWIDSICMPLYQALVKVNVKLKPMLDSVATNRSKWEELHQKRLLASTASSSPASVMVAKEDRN

Regarding `CCOc1cc(C)nc(N(CCOC)S(=O)(=O)c2ccc(NCc3c(F)cncc3F)nc2OC)n1` [Compound 1], the pIC50 on Human PDE4D3 was less than 4.46; against Human PDE5A1, 3.81; on Human PDE3A1, 4.74; at Human PDE8B, 5.04; at human GPR61 (Fig. 2d, HiBit-tagged WT, read-out: IC50, cAMP assay, Hibit-tagged GPR61), 8.00; at human GPR61 (Fig. 2d, untagged WT, read-out: IC50, cAMP assay, Untagged GPR61), 7.96. For the same compound, the negative-log IC50 (pIC50) was 7.96 to 8.00 at human GPR61 (wild-type GPR61, untagged and HiBit-tagged, read-out: IC50 in the functional cAMP assay); less than 4.40 on Human PDE11A4. Also, the “cAMP response (Figure 3e source data)” value at human GPR61 (HiBit WT, concentration -7.5) was 1.38 and 1.77 and 1.31 and 1.26 and 1.43 and 2.44; on human GPR61 (HiBit WT, concentration -8), 2.14 and 2.36 and 1.86 and 2.11 and 3.43; at human GPR61 (HiBit WT, concentration -10) it was 3.60 and 4.23 and 3.00 and 3.19 and 3.38 and 5.40; at human GPR61 (Untagged WT, concentration -8.5), 3.48 and 4.28 and 2.15 and 2.16 and 4.06 and 4.02; at human GPR61 (Untagged WT, concentration -9), 4.53 and 5.41 and 3.02 and 3.13 and 5.81 and 5.80.
